Data taken from patent US5608143A, “External regulation of gene expression” (E. I. Du Pont de Nemours and Company, priority 1994, dated 1997).

Legend:
[1] = tested on: 2-2 promoter/HRA recombinant gene; experiment: RNAse protection analysis of HRA (ALS) mRNA in leaves of tobacco transformed with 2-2 promoter/HRA gene; type: in vivo; conditions: excised leaves, 200 mg/l in 0.5× Hoagland's, 16-24 hours
Procedure: The expression of stable cytoplasmic mRNA transcribed from the wild type and transforming ALS genes in transformed plants were measured by RNAse protection analysis. In this manner, expression of the pDuPS22 construction was distinguished from the wild type ALS genes by virtue of the fact that the pDUPS22 transcript has a 2-2 untranslated leader that is divergent from the untranslated leader of the native ALS genes. […]
RNAse protection assays were carried out using the protocol of Zinn et al. (Zinn et al. Cell (1983) 34, 865-879). […] The sizes of the labelled RNA fragments remaining after digestion with RNAse T1 and RNAse A were determined by electrophoresis using 6% denaturing polyacrylamide gels.

[2] = tested on: tobacco leaf pieces (callus formation); experiment: Callus formation of leaf pieces from kanamycin-resistant tobacco shoots on selective medium; type: cell-based; conditions: sixteen kanamycin-resistant shoots, three weeks; 10 ppb chlorsulfuron and/or 100 ppm D5293
Excerpt: Callus formation was scored as plus or minus after three weeks of growth.

5-2 gene (In 5-2 mRNA) = experiment: RNA slot blot / Northern analysis of 5-2 mRNA in roots of chemically treated corn; type: in vivo, corn (Missouri 17); parameters: In5-2 induction level: key to the marks not given beside the values
Procedure: Details of the techniques used to perform Example 3 are presented in Example 1. The cDNA library made from poly (A)+ RNA from the roots of N-(aminocarbonyl)-2-chlorobenzenesulfonamide-treated Missouri 17 corn plants described in Example 1 was analyzed for additional cDNA clones representing N-(aminocarbonyl)-2-chlorobenzenesulfonamide-induced mRNAs. […] This colony was designated In 5-2.
A small scale plasmid preparation was performed on an overnight culture of In 5-2 and an aliquot of the plasmid, designated pIn 5-2, was nick-translated as described earlier. Slot blot analysis was performed as described in Example 1 using nick-translated In 5-2 plasmid. […] This plasmid was designated pIn 5-2.
An aliquot of the small scale plasmid preparation of pIn 5-2 was digested to completion with PSt I and analyzed by agarose gel electrophoresis. The cDNA insert of the plasmid was excised as a single 420 bp Pst I fragment. Plasmid pin 5-2 was nick-translated and used to probe a Northern blot of RNA from both untreated and N-(aminocarbonyl)-2-chlorobenzenesulfonamide-treated roots.
The ability at various substituted benzenesulfonamides and related compound to induce the expression of the 2-1, 2-2, and 5-2 genes of Missouri 17 corn was evaluated. Corn seeds were germinated and grown hydroponically in 2 liter beakers as described in Example 1. On the tenth day, plants were transferred into fresh 0.5× Hoagland's solution containing the chemical to be tested. Root tissue was harvested from the plants after six hours of chemical treatment, quick-frozen by immersion in liquid N2, and stored at -80° C. until analyzed.
Details of the RNA isolation and slot blot analysis procedures are presented in Example 1. Total RNA was prepared from the root tissue of plants that had been treated with various chemicals using the previously described guanidine thiocyanate procedure. Replicate blots, each consisting of 2 μg of total RNA from tissues treated with each of the chemicals shown in tables 8 and 9, were prepared on nitrocellulose membranes using a Minifold II® Slot-blotter (Schleicher & Schuell) following the manufacturer's recommeneded procedure. Replicate blots were prehybridized and hybridized with cDNA probes made by nick translation of the purified cDNA inserts from plasmid pIn 2-1, pIn 2-2-3, and pIn 5-2. Slot blots were washed as described in Example 1 and exposed to Kodak X-OMAT XAR-5 film for 24 hours at -80° C. using a single Du Pont Lightning Plus intensifying screen. Film was developed using a Kodak X-OMAT film processor. The abililty of a chemical to induce the mRNA encoded by the three inducible genes was evaluated in one of two ways. Qualitative evaluation was performed by direct visual comparison of the autoradiographic signal intensities on the films for the hybridization of each probe to the different RNA samples. Quantitative evaluation was performed by cutting each slot containing hybridized RNA from the blot, immersing it in 2 ml of Du Pont ECONOFLUOR® scintillation cocktail and counting the radioactivity in each slot in a scintillation counter. The net amount of radioactivity hybridizing to N-(aminocarbonyl)-2-chlorobenzenesulfonamide-treated RNA after subtraction of radioactivity hybridizing to untreated RNA is presented in Table 15.

[3] = tested on: petunia P6.1 gene (P6 RNA); experiment: Northern / RNAse protection analysis of P6 RNA in roots of chemically treated petunia; type: in vivo, Petunia (Mitchell)
Excerpt: Petunia (Mitchell) seeds were germinated in soil and allowed to grow for one month under standard greenhouse conditions. Plants were transferred to a hydroponic growth apparatus in a greenhouse using foam plugs to support the plants. These plugs were then placed in holes in a wooden bDard and placed over a stainless steel sink containing 0.5× Hoagland's solution. The solution was aerated using standard aquarium pumps, and was changed weekly. After one month of hydroponic growth, plants were transferred to stainless steel trays containing either fresh 0.5 × Hoagland's or 0.5× Hoagland's containing 0.2 g per liter of N-(aminocarbonyl)-2-chlorobenzenesulfonamide. Root tissue was harvested after six hours of treatment.
Ten μg (2 mg/ml) of total RNA from control and N-(aminocarbonyl)-2-chlorobenzenesulfonamide-treated roots was denatured by adding 10 μl of deionized formamide, 3.5 μl formaldehyde, 4 μl 5× MEN buffer (40 mM MOPS pH 7.0, 10 mM sodium acetate, 1 mM EDTA) and incubating at 65° C. for 15 minutes. […] RNA was stained in the presence of 10 mM sodium phosphate pH 6.8 and 1 μg/ml acridine orange for 30 minutes. The gel was then desrained in 10 mM sodium phosphate for 30 minutes, and the RNA was visualized on a UV transilluminator, photographed, and blotted to nitrocellulose (Millipore HAWP). To do this, Whatman 3MM paper was placed below the gel on a glass plate so that the ends of the paper extended into 20× SSC. A sheet of nitroccllulose which had been prewet with 2× SSC was placed on top of the gel followed by a layer of Whatman 3MM, then a stack of paper towels 10 cm high. A glass plate and weight were then placed on top of the stack. Following an overnight transfer, the filter was rinsed briefly in 2× SSC, air dried, and baked in vacuo for 2 hours at 80° C.
The filters were prehybridized for 5 hours in plastic dishes at 42° C. using the hybridization buffer described earlier. Plasmid p6.1 was nick-translated by combining 1 μg of DNA with 5 μl 10× buffer (0.5M Tris-HCl pH 8.0, 0.1M MgSO4, 10 mM DTT and 0.5 mg/ml BSA), 5 μl 0.3 uM d(AGT)TP, 5 μl ^32 P-dCTP (Amersham, 10 mCi/ml, 400 Ci/mmole), 1 μl DNA polymerase 1 (5 U/μl, Boehringer-Mannheim), and 1 μl of 0.1 μg/ml DNAse 1 in a total volume of 50 μl. […] The reaction was then incubated for 5 minutes at 70° C., and labelled DNA was separated from unincorporated nucleotides by Sephadex® G-50 column chromatography. The prehybridization solution was removed from the bag and replaced with hybridization solution containing nick-translated plasmid P6.1 DNA at a concentration of 1×10^6 cpm/ml. […] Filters were washed twice with 2× SSC, 0.1% SDS at 42° C. followed by two washes in 0.1× SSC, 0.1%SDS at 60° C.
RNA probes complementary to the coding strands in both P644 and P645 were synthesized in the following reaction: 50 uCi ^32 P-UTP, 2 μl 5× transcription buffer (200 mM Tris-HCl pH 7.5, 30 mM MgCl2, 10 mM spermidine), 0.5 μl 0.2M DTT, and 0.5 μl of either T3 polymerase (plasmid P645) or T7 polymerase (plasmid P644). Incubation was carried out at 40° C. for 1 hour. The DNA template was hydrolyzed for 15 minutes at 37° C. by addition of 30 μl H2 O, 1 μl RNAsin, 2,5 μl vanadyl ribonucleoside complex, 6 μl 5× transcription buffer and 1 μl DNAse 1 (1 mg/ml) to the transcription reaction. The reaction was extracted with an equal volume of phenol:chloroform (1:1 v/v). The RNA was precipitated once with ethanol in the presence of ammonium acetate and once with ethanol in the presence of sodium acetate. The pellets were dissolved in 25 μl of TE. Ten μg of RNA from untreated and N-(aminocarbonyl)-2-chlorobenzenesulfonamide-treated plants were mixed with 1×10^6 cpm of each of the two probes in 30 ul of hybridization buffer (40 mM PIPES pH 6.7, 0.4M NaCl, 1 mM EDTA). […] Single stranded RNA was selectively digested by adding 300 μl RNAse A and RNAse T1 to 40 μg/ml and 2 μg/ml respectively in 10 mM Tris-HCl pH 7.5, 5 mM EDTA, and 300 mM NaCl.

[4] = hydroponic treatment, corn roots
[5] = hydroponic 200 mg/l, sampled at 2, 4, 6 and 22 hours, roots

hybridization of P6.1 probe to root RNA (Northern blot) ([3]; hydroponic 0.2 g per liter, six hours, petunia roots): hybridized to an 800 bp message | time at which P6 RNA reached maximum levels [3, 5]: ≤ 6 h | time at which P6 RNA was detectable [3, 5]: ≤ 2 h
SMILES: NC(=O)NS(=O)(=O)c1ccccc1Cl
induction of HRA mRNA (RNAse protection) [1]: induction of high levels of stable cytoplasmic HRA mRNA | Callus formation (shoots whose leaf pieces formed callus / shoots tested) [2]: 0/16 | In5-2 induction level (5-2 gene (In 5-2 mRNA); hydroponic application, 100 ppm): +++++ | hybridization of pIn 5-2 to root RNA (Northern blot) (5-2 gene (In 5-2 mRNA); [4]): induced in root tissue by chemical treatment | hybridization of pIn 5-2 to root RNA (slot blot) (5-2 gene (In 5-2 mRNA); [4]): hybridizes strongly | RNAse protection of P6.1 probes by root RNA ([3]; petunia roots, treated vs untreated plants): Protected fragments of 110 bp were observed in induced but not control RNA
